Source: patent publication US11274136B2, “Acylated glucagon analogue” (Zealand Pharma A/S, priority 2015, dated 2022)

Key:
[1] = target: T1, human glucagon-like peptide 1 receptor (GLP-1R) (Homo sapiens, UniProt P43220); assay: GLP-1 receptor efficacy assay (cAMP AlphaScreen, CHO cells); type: cell-based; conditions: EC50[GLP-1R]/EC50[Glucagon-R], human receptors in CHO-K1
T1 construct: expressed in transfected cells
Source text: The cDNA encoding either the human glucagon receptor (Glucagon-R) (primary accession number P47871) or the human glucagon-like peptide 1 receptor (GLP-1R) (primary accession number P43220) were synthesized and cloned into a mammalian expression vector containing a Zeocin resistance marker.
The mammalian expression vectors encoding the Glucagon-R or the GLP-1-R were transfected into Chinese hamster ovary (CHO) cells by the Attractene method. Stably expressing clones were obtained by Zeocin selection (250 μg/mL) upon limited dilution of cells resistant to the selection pressure. Glucagon-R and GLP-1-R cell clones expressing were picked, propagated and tested in the Glucagon-R and GLP-1-R efficacy assays as described below. […]
CHO cells expressing the human Glucagon-R, or human GLP-1-R were seeded 24 hours prior to the assay at 5000 cells per well in 384-well microtiter plates in culture in 50 μl growth medium. […] After two hours of incubation at room temperature in the dark, the cAMP content was determined applying the AlphaScreen™ cAMP Functional Assay Kit from Perkin-Elmer according to manufacturer instructions. EC50 and relative efficacies compared to reference compounds (glucagon and GLP-1) were calculated applying computer aided curve fitting. The GLP-1/glucagon ratio is calculated as defined earlier.

[2] = Pharmacokinetic parameters after intravenous administration to rats; type: in vivo; conditions: Han/Wistar, rat, plasma, male Wistar rats, 20 nmol/kg
Protocol: Pharmacokinetic parameters of the test compounds were determined after intravenous administration to Han/Wistar rats. The acylated GLP-1 analogue semaglutide was also tested for comparison purposes.
Male Wistar rats were obtained from Charles River (Germany) weighing approximately 180 to 210 g at time of arrival at the test facility. Rats were caged in European standard rat cages type IV with light cycle of 12-hour dark and 12-hour light. During the study rats were housed in standard rat cages type III. Both diet Altromin 1324 (Altromin, Germany) and water was administered ad libitum during the whole experimental period. The animals were housed in the test facility for at least 4 days in order to assure proper acclimatization.
The compounds were first dissolved in 0.1% aqueous ammonia to a nominal concentration of 2 mg/ml, and then diluted to the desired dosing strength (10 μM) in sterile PBS containing 25 mM phosphate buffer, pH 7.4. Intravenous injections corresponding to 20 nmol/kg were given via a lateral tail vein.
Blood samples (200 μl) were collected from the periorbital plexus at time points 0.08, 0.25, 0.5, 1, 2, 4, 8, 24, 32 and 48 h post dosing into K3EDTA tubes and centrifuged for 5 minutes at 4° C. within 20 minutes of sampling. Plasma samples (>100 μl) were transferred to 96-well PCR plates, immediately frozen and kept at −20′C until analysed for plasma concentration for the respective GLP-1-glucagon compound using LC-MS/MS. Individual plasma concentration-time profiles were analysed by a non-compartmental approach using ToxKin™ version 3.2 (Unilog IT Services), and the resulting pharmacokinetic parameters were determined.

[3] = Oral glucose tolerance test (OGTT) in mice; type: in vivo; conditions: male C57BL6/J mice, 30 nmol/kg subcutaneous, blood glucose AUC 0-120 min
Protocol: Effects of the test compounds on glycemic control were determined by an oral glucose tolerance test (OGTT) in 7-8 weeks old male C57BL6/J mice (obtained from Charles River Laboratories, Germany). Animals were housed in groups in individually ventilated cages (Tecniplast green line) with a 12-hour light cycle. They had ad libitum excess to a standard rodent diet (Provimi Kliba 3438) and water. The animals were housed in the test facility for at least one week prior to the OGTT. All experimental protocols concerning the use of laboratory animals were reviewed by a federal Ethics Committee and approved by governmental authorities.
The compounds were first dissolved in 0.1% aqueous ammonia to a nominal concentration of 2 mg/ml, and then diluted to the desired dosing strength in sterile PBS containing 25 mM phosphate buffer, pH 7.4. Compounds were administered in the morning by subcutaneous injection at a dose of 30 nmol/kg and a volume of 5 ml/kg. Control animals received a vehicle injection only. The GLP-1 analogue liraglutide was tested for comparison purposes. Group size was 5 animals per group.
The OGTT was performed 24 h or 48 h after compound administration. Animals were fasted for 10 h before the OGTT but still had ad libitum excess to water. After overnight fasting, a baseline blood sample (0 min) was obtained by tail bleed and blood glucose was measured with a glucometer. […]

T1 sequence (P43220 24-463): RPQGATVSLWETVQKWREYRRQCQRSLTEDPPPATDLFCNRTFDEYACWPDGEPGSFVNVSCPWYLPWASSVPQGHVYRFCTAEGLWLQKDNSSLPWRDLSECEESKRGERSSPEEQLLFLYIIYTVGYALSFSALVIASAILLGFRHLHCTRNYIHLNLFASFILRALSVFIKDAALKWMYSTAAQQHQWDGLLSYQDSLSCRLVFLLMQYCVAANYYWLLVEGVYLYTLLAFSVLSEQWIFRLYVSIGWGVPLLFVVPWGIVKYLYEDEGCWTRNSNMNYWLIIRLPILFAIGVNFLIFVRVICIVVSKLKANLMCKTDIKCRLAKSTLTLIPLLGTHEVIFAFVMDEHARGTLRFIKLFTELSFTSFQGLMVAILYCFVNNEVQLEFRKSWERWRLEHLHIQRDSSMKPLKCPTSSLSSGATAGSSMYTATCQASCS

CC[C@H](C)[C@H](NC(=O)[C@H](Cc1ccccc1)NC(=O)[C@H](CC(=O)O)NC(=O)[C@H](CCCCN)NC(=O)[C@H](C)NC(=O)[C@H](C)NC(=O)[C@H](CCCNC(=N)N)NC(=O)[C@H](CCC(=O)O)NC(=O)[C@H](CC(=O)O)NC(=O)[C@H](CC(C)C)NC(=O)[C@H](Cc1ccc(O)cc1)NC(=O)[C@H](CCCCN)NC(=O)[C@H](CO)NC(=O)[C@H](Cc1ccc(O)cc1)NC(=O)[C@H](CC(=O)O)NC(=O)[C@H](CO)NC(=O)[C@@H](NC(=O)[C@H](Cc1ccccc1)NC(=O)[C@@H](NC(=O)CNC(=O)[C@H](CCC(N)=O)NC(=O)C(C)(C)NC(=O)[C@@H](N)Cc1c[nH]cn1)[C@@H](C)O)[C@@H](C)O)C(=O)N[C@@H](CCC(=O)O)C(=O)N[C@@H](Cc1c[nH]c2ccccc12)C(=O)N[C@@H](CC(C)C)C(=O)N[C@@H](CCC(=O)O)C(=O)N[C@@H](CCCCNC(=O)CNC(=O)CNC(=O)[C@H](CO)NC(=O)CNC(=O)[C@H](CO)NC(=O)CNC(=O)CC[C@H](NC(=O)CCCCCCCCCCCCCCCCC(=O)O)C(=O)O)C(=O)N[C@@H](C)C(N)=O [Compound 1]
Ratio GLP-1/Glucagon [1]: 0.13
clearance [2]: 5.4 mL/h/kg
MRT ([2]; read-out: Mean Residence Time): 19.2 h
half-life ([2]; read-out: Terminal half life (converted)): 15.2 h
OGTT AUC 30 nmol/kg 24 h ([3]; OGTT 24 h after administration): 56 % CTL
OGTT AUC 30 nmol/kg 48 h ([3]; OGTT 48 h after administration): 74 % CTL
